Test results from patent publication US10568892B2, “Cycloartane tetracyclic triterpenoid compound, preparation method therefor and use thereof” (Hefei Cosource Pharmaceuticals Inc., priority 2016, dated 2020).

Columns and labels:
guinea pig heart = experiment: Atrial fibrillation induced by high- and low-potassium Langendorff perfusion of the guinea pig heart; settings: for Incidence (%) of atrial fibrillation / Number of animals developing atrial fibrillation: within 60 min of low-potassium perfusion
Description: Method: a total of 24 guinea pigs were divided into 4 groups according to body weight, and were sacrificed. The heart was quickly taken out, and the blood was squeezed in the ice bath perfusion solution. The heart was quickly transferred in the Langendorff perfusion system, and the perfusion at a constant rate was started by turning on the oxygen-saturated perfusate. One end of the electrode was placed at the cardiac apex, and one end was placed at the right atrium (the position of the atrial appendage). The electrocardiogram was recorded on the computer.
After the heart was stabilized, 10 min after the perfusion of high-K perfusate, blank vehicle, 0.1 μM, 1 μM, and 10 μM of Compound 369, 1 μM Amiodarone and Cyclovirobuxine D were simultaneously administrated and the high K perfusion was continued for 20 min, respectively. Then, the high K perfusion was removed to administrate the low-K perfusate, and the electrocardiogram was obtained at the same time to record whether there was atrial fibrillation within 60 min of low-potassium perfusion.

SD rats = experiment: Rat myocardial ischemia model with coronary artery ligation and reperfusion (arrhythmia incidence); format: in vivo; settings: for Death (%) / Death n / Ventricular fibrillation (%) / Ventricular fibrillation n / Ventricular premature beat (%) / Ventricular premature beat n / Ventricular tachycardia (%) / Ventricular tachycardia n: injection (sublingually) 5 min before ischemia
Description: Method: SD rats were anesthetized with pentobarbital, and a cervical midline incision was made to separate and cut off the trachea such that it was connected to a respirator. The skin was cut along the midline of the left clavicle of the rat, and the chest was opened between the left third and fourth ribs to gently squeeze out the heart. The pericardium was opened, the needle was inserted at the left edge of the pulmonary artery cone and 2 mm at the lower edge of the left atrial appendage. The 6-0 non-invasive suture was threaded through the superficial myocardium, with the left anterior descending coronary artery (LAD) located thereon. After stabilization for 5 min, a double-layer plastic cannula was put on, and the cable tie was tighten to complete the myocardial ischemia induced by left coronary artery occlusion. The criterion for myocardial ischemia is the occurrence of myocardial infarction (St-segment ran up or T-wave was shown as high sharp wave) in the electrocardiogram and the presence of local cyanosis in the heart. After 5 min of myocardial ischemia, the inner cannula was withdrawn, that is, the wire knot was released for reperfusion, and the electrocardiogram of reperfusion in the rat was recorded.
The administration was performed at 5 min before the ischemia by coronary artery ligation, and the administration mode was injection administration (sublingually).

[1] = Single-dose toxicity (MTD) in KM mice; format: in vivo; settings: in vivo, po; KM mouse; single intragastrical administration; read-out: Maximum tolerance dose (MTD)
Description: The results of the experimental study on the toxicity of Compound 369 administrated through a single intravenous or intragastrical administration in SD rats and KM mice are shown in Table 9.

[2] = Pharmacokinetics in SD rats; format: in vivo, rat; settings: rat, in vivo
Protocol: Method: twelve SD male rats were divided into four groups: 2 mg/kg of Compound 369 or cyclovirobuxine D was single dose through the intravenous injection or intragastrical administration, respectively. In the intravenous and intragastrical groups, blood samples (about 0.3 Ml) were collected from the posterior orbital venous plexus pro-dose and 0.25 h, 0.5 h, 1 h, 2 h, 4 h, 6 h, 8 h, and 12 h post-dose. The concentrations of Compound 369 and cyclovirobuxine D in plasma samples were determined by LC-MS/MS, and the pharmacokinetic parameters were calculated by DAS.3.0 software.

SMILES: CN[C@H]1CC[C@]23C[C@]24CC[C@]2(C)C(C(C)=O)=CC[C@@]2(C)[C@@H]4CC[C@H]3C1(C)C [Compound 369, (3β,5α)-4,4,14-trimethyl-3-(methylamino)-9,19-cyclopregnan-16-en-20-one]
- Number of animals developing atrial fibrillation compared to the vehicle group (in words) (guinea pig heart; 0.1 μM to 10 μM, dose-dependent): significantly decreased
- Incidence (%) of atrial fibrillation (guinea pig heart; 0.1 μM): 80%
- Number of animals developing atrial fibrillation (guinea pig heart; 0.1 μM): 4
- Incidence of atrial fibrillation for ex vivo heart vs cyclovirobuxine D (in words) (guinea pig heart; 1 μM): significantly lower
- Incidence (%) of atrial fibrillation (guinea pig heart; 1 μM): 33%
- Number of animals developing atrial fibrillation (guinea pig heart; 1 μM): 2
- Incidence (%) of atrial fibrillation (guinea pig heart; 10 μM): 0%
- Number of animals developing atrial fibrillation (guinea pig heart; 10 μM): 0
- Death (%) (SD rats; 1 mg/kg): 38%
- Death n (SD rats; 1 mg/kg): 3
- Ventricular fibrillation (%) (SD rats; 1 mg/kg): 63%
- Ventricular fibrillation n (SD rats; 1 mg/kg): 5
- Ventricular premature beat (%) (SD rats; 1 mg/kg): 100%
- Ventricular premature beat n (SD rats; 1 mg/kg): 8
- Ventricular tachycardia (%) (SD rats; 1 mg/kg): 100%
- Ventricular tachycardia n (SD rats; 1 mg/kg): 8
- Death (%) (SD rats; 10 mg/kg): 0 (0) %
- Death n (SD rats; 10 mg/kg): 0 (0)
- Ventricular fibrillation (%) (SD rats; 10 mg/kg): 14%
- Ventricular fibrillation n (SD rats; 10 mg/kg): 1
- Ventricular premature beat (%) (SD rats; 10 mg/kg): 86%
- Ventricular premature beat n (SD rats; 10 mg/kg): 6
- Ventricular tachycardia (%) (SD rats; 10 mg/kg): 71%
- Ventricular tachycardia n (SD rats; 10 mg/kg): 5
- Death (%) (SD rats; 30 mg/kg): 0 (0) %
- Death n (SD rats; 30 mg/kg): 0 (0)
- Ventricular fibrillation (%) (SD rats; 30 mg/kg): 0 (0) %
- Ventricular fibrillation n (SD rats; 30 mg/kg): 0 (0)
- Ventricular premature beat (%) (SD rats; 30 mg/kg): 83%
- Ventricular premature beat n (SD rats; 30 mg/kg): 5
- Ventricular tachycardia (%) (SD rats; 30 mg/kg): 17%
- Ventricular tachycardia n (SD rats; 30 mg/kg): 1
- Numbers of animals (incidences) with ventricular premature beat, ventricular tachycardia, ventricular fibrillation, and death vs vehicle (in words) (SD rats; 1 to 30 mg/kg, dose-response relationship): lower
- MTD [1]: 1000 mg/kg
- F ([2]; male, SD, 2 mg/kg): 35%
- AUC(0-t) ([2]; male, SD, iv, 2 mg/kg): 249 ng·h/mL
- Cmax ([2]; male, SD, iv, 2 mg/kg): 103 ng/mL
- Tmax ([2]; male, SD, iv, 2 mg/kg): 0.25 h
- half-life ([2]; male, SD, iv, 2 mg/kg): 4.1 h
- AUC(0-t) ([2]; male, SD, po, 2 mg/kg): 84.6 ng·h/mL
- Cmax ([2]; male, SD, po, 2 mg/kg): 11.4 ng/mL
- Tmax ([2]; male, SD, po, 2 mg/kg): 5 h
- half-life ([2]; male, SD, po, 2 mg/kg): 3.5 h
- Exposures in plasma (AUC and Cmax values) vs cyclovirobuxine D (in words) [2]: slightly lower than that of cyclovirobuxine D
- Half-life (T1/2) vs cyclovirobuxine D (in words) [2]: significantly shorter than that of cyclovirobuxine D
